Reference: ChEMBL document CHEMBL1201862, “PubChem BioAssay data set” (2004)
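Results reflect a 48-hour exposure of cells in 96-well plates to compound at five concentrations. At the GI50, growth is halved.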 Active and inactive are the calls of the source. No stated cut-off is given here; in the data, active = GI50 up to about 1.1 µM and inactive = higher. Where a SMILES comes first, the peptide text is derived from it. Non-standard residues stand in square brackets, D forms with d. Residues, ends and D or L forms follow the SMILES beside them. The star is where a group is joined. *: point of attachment. Benzoyl(4-OMe) = COc1ccc(C(=O)*)cc1; 2Thi = N[CH](Cc1cccs1)C(=O)O; Cbz = O=C(OCc1ccccc1)*

Key:
Test in all cases: growth of human tumour cells (NCI), 48 h
[1] = test system: Hs-578T
[2] = test system: NCI-H23
[3] = test system: UO-31
[4] = test system: Malme-3M
[5] = test system: CAKI-1
[6] = test system: U-251
[7] = test system: SF-268
[8] = test system: COLO 205
[9] = test system: CCRF-CEM
[10] = test system: OVCAR-5
[11] = test system: HL-60
[12] = test system: HT-29
[13] = test system: SNB-19
[14] = test system: IGROV-1
[15] = test system: HCT-116
[16] = test system: M14
[17] = test system: HOP-92

Row | SMILES | GI50 [1] | GI50 [2] | GI50 [3] | GI50 [4] | GI50 [5] | GI50 [6] | GI50 [7] | GI50 [8] | GI50 [9] | GI50 [10] | GI50 [11] | GI50 [12] | GI50 [13] | GI50 [14] | GI50 [15] | GI50 [16] | GI50 [17]
1 | O=c1ccn(C2OC(CO)C(O)C2F)c(=O)n1Cc1ccccc1 (configuration not stated) | > 100 µM (inactive) | > 100 µM (inactive) | > 100 µM (inactive) | > 100 µM (inactive) | > 100 µM (inactive) | > 100 µM (inactive) | > 100 µM (inactive) | > 100 µM (inactive) | > 100 µM (inactive) | > 100 µM (inactive) | > 100 µM (inactive) | > 100 µM (inactive) | > 100 µM (inactive) | > 100 µM (inactive) | > 100 µM (inactive) |  | 
2 | CCCCCCCCCCCC(=O)c1c(O)cc(C)oc1=O | 51.6 µM (inactive) | 34.8 µM (inactive) | 40.6 µM (inactive) | 45 µM (inactive) | 40.4 µM (inactive) | 48.5 µM (inactive) | 42.2 µM (inactive) | 26.5 µM (inactive) | 23.7 µM (inactive) | 92.7 µM (inactive) | 42.4 µM (inactive) | 66.7 µM (inactive) | 62.7 µM (inactive) | 55.5 µM (inactive) | 45.7 µM (inactive) | 79.1 µM (inactive) | 
3 | CC(=O)OC12c3ccccc3C(c3ccccc31)C1C(=O)N(c3ccccc3O)C(=O)C12 (configuration not stated) | > 100 µM (inactive) | 41.6 µM (inactive) | 50.4 µM (inactive) | 90.4 µM (inactive) | > 100 µM (inactive) | > 100 µM (inactive) | 80.5 µM (inactive) | > 100 µM (inactive) | 57.3 µM (inactive) | > 100 µM (inactive) | 76.9 µM (inactive) | 70.5 µM (inactive) | 84.9 µM (inactive) | > 100 µM (inactive) | > 100 µM (inactive) | > 100 µM (inactive) | 
4 | C[C@@H]1OC(=O)C[C@H]2CC(=O)N(CCC3CN(S(=O)(=O)C(F)(F)F)c4ccc(Cc5ccc6c(c5)C(CCN5C[C@H]7[C@@H](CC(=O)O[C@H]7C)CC5=O)CN6S(=O)(=O)C(F)(F)F)cc43)C[C@@H]21 (some centres not stated) |  | > 100 µM (inactive) | > 100 µM (inactive) | > 100 µM (inactive) | > 100 µM (inactive) | > 100 µM (inactive) | > 100 µM (inactive) | > 100 µM (inactive) | > 100 µM (inactive) | > 100 µM (inactive) |  |  | > 100 µM (inactive) |  | > 100 µM (inactive) | > 100 µM (inactive) | > 100 µM (inactive)
5 | COC(=O)/C=C(\C)C(=O)N(C)c1ccccc1I |  | > 100 µM (inactive) | > 100 µM (inactive) | > 100 µM (inactive) | 72.1 µM (inactive) | > 100 µM (inactive) | > 100 µM (inactive) | > 100 µM (inactive) | > 100 µM (inactive) | > 100 µM (inactive) |  |  | > 100 µM (inactive) |  | > 100 µM (inactive) | > 100 µM (inactive) | > 100 µM (inactive)
6 | CCC(C)C(NC(=O)C(Cc1cccs1)NC(=O)C(CC(C)C)NC(=O)C(CC(C)C)NC(=O)C(CCCCN)NC(=O)C(CCCNC(=N)N)NC(=O)c1ccc(OC)cc1)C(=O)NC(CC(C)C)C(N)=O (configuration not stated) ({Benzoyl(4-OMe)}-RKLL[2Thi]IL-NH2; configuration not given here) | > 100 µM (inactive) | > 100 µM (inactive) | > 100 µM (inactive) | > 100 µM (inactive) | > 100 µM (inactive) | > 100 µM (inactive) | > 100 µM (inactive) | > 100 µM (inactive) | 78.2 µM (inactive) | > 100 µM (inactive) |  | > 100 µM (inactive) | > 100 µM (inactive) |  | > 100 µM (inactive) | > 100 µM (inactive) | 
7 | CSc1nc(Nc2ccccc2Cl)c2c(N)nn(C)c2n1 | 17 µM (inactive) | > 100 µM (inactive) | > 100 µM (inactive) | > 100 µM (inactive) | > 100 µM (inactive) | > 100 µM (inactive) | 77.8 µM (inactive) | > 100 µM (inactive) | > 100 µM (inactive) | > 100 µM (inactive) |  | > 100 µM (inactive) | > 100 µM (inactive) | > 100 µM (inactive) | > 100 µM (inactive) | > 100 µM (inactive) | 
8 | CS(=O)(=O)O[C@H]1CN2C[C@@H](O)[C@@H](O)[C@H]2[C@H]1CO.[B] |  | > 100 µM (inactive) | > 100 µM (inactive) | > 100 µM (inactive) | > 100 µM (inactive) | > 100 µM (inactive) | > 100 µM (inactive) | > 100 µM (inactive) | 0.333 µM (active) | > 100 µM (inactive) |  | > 100 µM (inactive) | > 100 µM (inactive) | > 100 µM (inactive) | > 100 µM (inactive) | > 100 µM (inactive) | 
9 | c1ccc2c(c1)CC1COc3ccccc3C1O2 (configuration not stated) |  | 67.1 µM (inactive) | 51.1 µM (inactive) | > 100 µM (inactive) | 71.3 µM (inactive) | 54.3 µM (inactive) | > 100 µM (inactive) | > 100 µM (inactive) | 73.6 µM (inactive) | > 100 µM (inactive) | > 100 µM (inactive) | 33.4 µM (inactive) |  | 86.1 µM (inactive) | 45.8 µM (inactive) | > 100 µM (inactive) | 47 µM (inactive)
10 | N#Cc1c(-c2ccccc2)c(C#N)c(=S)n(C2OCC(O)C(O)C2O)c1N (configuration not stated) | > 100 µM (inactive) | > 100 µM (inactive) | > 100 µM (inactive) | > 100 µM (inactive) | > 100 µM (inactive) |  | > 100 µM (inactive) |  | > 100 µM (inactive) | > 100 µM (inactive) | > 100 µM (inactive) | > 100 µM (inactive) | > 100 µM (inactive) | > 100 µM (inactive) |  | > 100 µM (inactive) | 
11 | CCOC(=O)CCC(NC(=O)CNC(=O)CNC(=O)C(CCC(=O)OCC)NC(=O)C(CCC(=O)OCC)NC(=O)C(CCC(=O)OCC)NC(=O)OCc1ccccc1)C(=O)NC(CCC(=O)OCC)C(=O)NC(CCC(=O)OCC)C(=O)OCC (configuration not stated) (Cbz-E(OEt)E(OEt)E(OEt)GGE(OEt)E(OEt)E(OEt)-OEt; configuration not given here) | > 75 µM (inactive) | > 75 µM (inactive) | > 75 µM (inactive) | > 75 µM (inactive) | > 75 µM (inactive) | > 75 µM (inactive) | > 75 µM (inactive) | > 75 µM (inactive) | > 75 µM (inactive) | > 75 µM (inactive) |  | > 75 µM (inactive) | > 75 µM (inactive) | > 75 µM (inactive) | > 75 µM (inactive) | > 75 µM (inactive) | 
12 | Nc1nc(NNc2cccc(F)c2)cc(=O)[nH]1 | 36.8 µM (inactive) | 48.3 µM (inactive) | 89.1 µM (inactive) | 74.8 µM (inactive) |  | 20.7 µM (inactive) |  | 23.3 µM (inactive) | 43.5 µM (inactive) | > 100 µM (inactive) | 23.1 µM (inactive) | 22.5 µM (inactive) | 65.2 µM (inactive) | 61.9 µM (inactive) | 24 µM (inactive) | 56.5 µM (inactive) | 
13 | CC(C)(C)c1cc(/C=C/C(=O)CC(=O)/C=C/c2cc(C(C)(C)C)c(O)c(C(C)(C)C)c2)cc(C(C)(C)C)c1O | > 50 µM (inactive) | > 50 µM (inactive) | > 50 µM (inactive) |  |  | > 50 µM (inactive) | > 50 µM (inactive) | > 50 µM (inactive) | > 50 µM (inactive) | > 50 µM (inactive) | > 50 µM (inactive) | > 50 µM (inactive) | > 50 µM (inactive) | > 50 µM (inactive) | > 50 µM (inactive) | > 50 µM (inactive) | 
14 | CN(C)/C=N\c1nncc2[nH]cnc12 |  | > 100 µM (inactive) | 98.6 µM (inactive) | 68.7 µM (inactive) | > 100 µM (inactive) | > 100 µM (inactive) |  | > 100 µM (inactive) | 46.1 µM (inactive) | > 100 µM (inactive) | > 10 µM (inactive) | > 100 µM (inactive) |  | > 100 µM (inactive) | 87.3 µM (inactive) | 55.8 µM (inactive) | 19.9 µM (inactive)
15 | CCCc1cc(=O)oc2c3c(c4c(c12)OC(C)(C)C=C4)O[C@@H](C)[C@H](C)C3=O | 15.3 µM (inactive) | 17 µM (inactive) | 15.8 µM (inactive) | 19.5 µM (inactive) | 28.9 µM (inactive) | 23.4 µM (inactive) | 17.1 µM (inactive) | 18.6 µM (inactive) | 15.1 µM (inactive) | 17.9 µM (inactive) | 4.99 µM (inactive) | 8.71 µM (inactive) | 17.8 µM (inactive) | 12.9 µM (inactive) | 10.4 µM (inactive) |  | 
16 | O=C(NNC(=O)c1ccccc1O)c1cccc(Br)c1 | > 66.7 µM (inactive) | > 100 µM (inactive) | 10.7 µM (inactive) | 37.2 µM (inactive) | 24.3 µM (inactive) | > 100 µM (inactive) | 24.9 µM (inactive) | 38.7 µM (inactive) | 0.512 µM (active) | > 100 µM (inactive) | 5.82 µM (inactive) | 43 µM (inactive) | 73.6 µM (inactive) | 18.3 µM (inactive) | 24.1 µM (inactive) | 26.9 µM (inactive) | 
17 | Cc1ccc(/C=C2\NC(=S)N(CN3CCCCC3)C2=O)cc1 | 41.4 µM (inactive) | > 100 µM (inactive) | 63.1 µM (inactive) | 85.3 µM (inactive) |  | 48.6 µM (inactive) | 64 µM (inactive) | 17 µM (inactive) | 12.4 µM (inactive) | > 100 µM (inactive) |  | 24.2 µM (inactive) | 55.5 µM (inactive) | > 100 µM (inactive) | 36.6 µM (inactive) | 55.1 µM (inactive) | 0.416 µM (active)
